Laboratory results as given in article PMC12153776, “Synthesis and Preliminary Cytotoxicity Evaluation of 3-Lup-20(29)-Ene-3β,28-Diol Glycoconjugates Containing a Succinic Linker and a 1,2,3-Triazole Ring” (Cancers, 2025).

Columns and labels:
[1] = test system: Normal Human Dermal Fibroblast-Neonatal cells (NHDF-Neo); experiment: MTT cytotoxicity assay, healthy NHDF-Neo cells; format: cell-based; conditions: 24 h, incubation 24 h
Method: (§1) For biological studies three different cell lines were used: the NHDF-Neo cell line (Lonza, Poland), the HCT-116 cell line (American Type Culture Collection, ATCC, Manassas, VA, USA), and the MCF-7 cell line (purchased by the Maria Sklodowska-Curie Memorial Cancer Center and Institute of Oncology, Gliwice, Poland and gifted for our research). Cells were cultured in 96-well plates (Sarstedt, Nümbrecht, Germany) using RPMI 1640 or DMEM/F12 media (100 µL per well) supplemented with fetal bovine serum (FBS, EURx, Gdańsk, Poland), and with Antibiotic–Antimycotic Solution (Avantor, Gliwice, Poland). […] Stock solutions of the tested compounds were prepared in DMSO and stored under appropriate conditions. Immediately prior to the experiment, these solutions were diluted to the desired concentrations using a growth medium. In no dilution was the DMSO content higher than 1% v/v. The resulting solutions were then used to treat cells (100 µL per well). […] In parallel, the influence of copper ions on cellular proliferation was investigated. In this case, the procedure was analogous to the previously described one, with the difference that glycoconjugates were added in the culture medium with the addition of CuCl2. […] ACROS Organics) was applied following the manufacturer’s protocol. Absorbance of the formazan, formed during the test and dissolved in 100 µL of DMSO, was measured spectrophotometrically at 570 nm using a plate reader (Epoch, Bio-Tek, Winooski, VT, USA). The measured absorbance was analyzed to assess proliferation, where tested samples were compared with the untreated controls (100%). The results from MTT were presented as the mean of three experiments (biological replicates). For each experimental condition within a replicate, four technical repetitions were performed. Technical repetitions were averaged to obtain a single value per replicate. Statistical analyses were conducted using means of the biological replicates. The percentage of viable cells and the standard deviation (SD) were calculated in Excel (Microsoft Office 365, A3 for faculty), using the STDEV.S formula, which determines the standard deviation for a sample set. […] The results are expressed as the average value ± standard deviation (SD). To evaluate statistical significance, two-way analysis of variance (ANOVA) with replication was performed to assess the effects of compound type and concentration on cell proliferation. […] All statistical tests were performed in Excel. […] Two cancer cell lines were chosen for the study: HCT 116 (colorectal carcinoma cell line) and MCF-7 (human breast adenocarcinoma cell line). This selection was not random, as in both types of cancer cell lines overexpression of glucose and galactose transporters is observed. To determine if glycoconjugation enhanced the selectivity of the betulin derivatives, cytotoxicity tests on Normal Human Dermal Fibroblast-Neonatal cells (NHDF-Neo) were also conducted. […] The incubation time for individual cell lines varied from 24 to 72 h, due to differences in the doubling time of these cell lines.

[2] = test system: HCT 116 (colorectal carcinoma cell line); experiment: cells; format: cell-based, human; conditions: for IC50: Homo sapiens, MTT
Method: as §1

[3] = test system: MCF-7 (human breast adenocarcinoma cell line); experiment: MTT cytotoxicity assay, MCF-7 cells; format: cell-based; conditions: for IC50: Homo sapiens, MCF7, 72 h, MTT, incubation 72 h
Method: as §1, with “Poland). Cells were seeded and incubated for 24 h prior to treatment:” for “Poland).”, “proliferation. When significant main effects were observed (p < 0.05), pairwise comparisons between betulin (BN) and each analogue at corresponding concentrations were conducted using two-tailed unpaired t-tests.” for “proliferation.”, “conducted. The selection of this healthy cell line, so atypical in relation to the cancer cells tested, was based on the desire to compare the selectivity index determined for the currently obtained glycoconjugates with the results obtained for the betulin derivatives we described earlier and draw preliminary conclusions on structure-selectivity relationships.” for “conducted.”

[4] = HCT-116, 24 h, incubation 24 h, no copper added
[5] = HCT-116, 48 h, incubation 48 h, addition of CuCl2 at 20 µM
[6] = HCT-116, 48 h, incubation 48 h, no copper added

Structure (SMILES) | IC50 ([1]; addition of CuCl2 at 20 µM) [µM] | IC50 ([1]; no copper added) [µM] | IC50 [2, 4] [µM] | IC50 [2, 5] [µM] | IC50 [2, 6] [µM] | IC50 ([3]; addition of CuCl2 at 20 µM) [µM] | IC50 ([3]; no copper added) [µM] | SI MCF-7 (ratio of IC50 of NHDF-Neo to IC50 of cancer cells) ([3]; addition of CuCl2 at 20 µM) | SI MCF-7 (ratio of IC50 of NHDF-Neo to IC50 of cancer cells) ([3]; no copper added) | SI HCT 116 (ratio of IC50 of NHDF-Neo to IC50 of cancer cells) ([2]; addition of CuCl2 at 20 µM) | SI HCT 116 (ratio of IC50 of NHDF-Neo to IC50 of cancer cells) ([2]; no copper added)
C=C(C)[C@@H]1CC[C@]2(COC(=O)CCC(=O)OCc3cn([C@@H]4O[C@H](COC(C)=O)[C@@H](OC(C)=O)[C@H](OC(C)=O)[C@H]4OC(C)=O)nn3)CC[C@]3(C)C(CCC4[C@@]5(C)CC[C@H](OC(C)=O)C(C)(C)C5CC[C@]43C)C12 (stereo partly drawn) [5a] | > 200 | > 200 | > 200 | > 200 | > 200 | 109 ± 5.85 | 163 ± 7.65 | >1.8 | >1.2 | – | –
C=C(C)[C@@H]1CC[C@]2(COC(=O)CCC(=O)OCc3cn([C@@H]4O[C@H](COCc5ccccc5)[C@@H](OCc5ccccc5)[C@H](OCc5ccccc5)[C@H]4OCc4ccccc4)nn3)CC[C@]3(C)C(CCC4[C@@]5(C)CC[C@H](OC(C)=O)C(C)(C)C5CC[C@]43C)C12 (stereo partly drawn) [5b] | – | > 200 | > 200 | – | > 200 | – | 168 ± 11.7 | – | >1.2 | – | –
C=C(C)[C@@H]1CC[C@]2(COC(=O)CCC(=O)OCc3cn([C@@H]4O[C@H](COC(C)=O)[C@@H](OC(C)=O)[C@H](OC(C)=O)[C@H]4OC(C)=O)nn3)CC[C@]3(C)C(CCC4[C@@]5(C)CC[C@H](O)C(C)(C)C5CC[C@]43C)C12 (stereo partly drawn) [5c] | > 200 | > 200 | > 200 | > 200 | > 200 | 70.7 ± 5.44 | 128 ± 1.35 | >2.8 | >1.6 | – | –
C=C(C)[C@@H]1CC[C@]2(COC(=O)CCC(=O)OCc3cn([C@@H]4O[C@H](COC(C)=O)[C@H](OC(C)=O)[C@H](OC(C)=O)[C@H]4OC(C)=O)nn3)CC[C@]3(C)C(CCC4[C@@]5(C)CC[C@H](OC(C)=O)C(C)(C)C5CC[C@]43C)C12 (stereo partly drawn) [6a] | > 200 | > 200 | > 200 | > 200 | > 200 | 59.8 ± 1.85 | 123 ± 6.84 | – | >1.6 | – | –
C=C(C)[C@@H]1CC[C@]2(COC(=O)CCC(=O)OCc3cn([C@@H]4O[C@H](COCc5ccccc5)[C@H](OCc5ccccc5)[C@H](OCc5ccccc5)[C@H]4OCc4ccccc4)nn3)CC[C@]3(C)C(CCC4[C@@]5(C)CC[C@H](OC(C)=O)C(C)(C)C5CC[C@]43C)C12 (stereo partly drawn) [6b] | – | > 200 | > 200 | – | > 200 | – | 184 ± 7.59 | – | >1.1 | – | –
C=C(C)[C@@H]1CC[C@]2(COC(=O)CCC(=O)OCc3cn(CCO[C@@H]4O[C@H](COC(C)=O)[C@@H](OC(C)=O)[C@H](OC(C)=O)[C@H]4OC(C)=O)nn3)CC[C@]3(C)C(CCC4[C@@]5(C)CC[C@H](OC(C)=O)C(C)(C)C5CC[C@]43C)C12 (stereo partly drawn) [7a] | > 200 | > 200 | > 200 | 150 ± 8.01 | > 200 | 135 ± 10.2 | 144 ± 4.7 | >1.5 | >1.4 | >1.3 | –
C=C(C)[C@@H]1CC[C@]2(COC(=O)CCC(=O)OCc3cn(CCCO[C@@H]4O[C@H](COC(C)=O)[C@@H](OC(C)=O)[C@H](OC(C)=O)[C@H]4OC(C)=O)nn3)CC[C@]3(C)C(CCC4[C@@]5(C)CC[C@H](OC(C)=O)C(C)(C)C5CC[C@]43C)C12 (stereo partly drawn) [7b] | > 200 | > 200 | > 200 | 112.5 ± 0.57 | > 200 | 124 ± 1.64 | 152 ± 2.91 | >1.6 | >1.3 | >1.8 | –
C=C(C)[C@@H]1CC[C@]2(COC(=O)CCC(=O)OCc3cn(CCO[C@@H]4O[C@H](COC(C)=O)[C@@H](OC(C)=O)[C@H](OC(C)=O)[C@H]4OC(C)=O)nn3)CC[C@]3(C)C(CCC4[C@@]5(C)CC[C@H](O)C(C)(C)C5CC[C@]43C)C12 (stereo partly drawn) [7c] | > 200 | > 200 | > 200 | > 200 | > 200 | 118 ± 1.42 | 135 ± 7.92 | >1.7 | >1.5 | – | –
C=C(C)[C@@H]1CC[C@]2(COC(=O)CCC(=O)OCc3cn(CCCO[C@@H]4O[C@H](COC(C)=O)[C@@H](OC(C)=O)[C@H](OC(C)=O)[C@H]4OC(C)=O)nn3)CC[C@]3(C)C(CCC4[C@@]5(C)CC[C@H](O)C(C)(C)C5CC[C@]43C)C12 (stereo partly drawn) [7d] | > 200 | > 200 | > 200 | 60.4 ± 6.95 | 131 ± 8.76 | 147 ± 2.32 | 165 ± 8.32 | >1.4 | >1.2 | – | >1.5
C=C(C)[C@@H]1CC[C@]2(COC(=O)CCC(=O)OCc3cn(C[C@H]4O[C@@H](OC(C)=O)[C@H](OC(C)=O)[C@@H](OC(C)=O)[C@H]4OC(C)=O)nn3)CC[C@]3(C)C(CCC4[C@@]5(C)CC[C@H](OC(C)=O)C(C)(C)C5CC[C@]43C)C12 (stereo partly drawn) [8a] | > 200 | > 200 | > 200 | > 200 | > 200 | 88.3 ± 3.31 | 153 ± 1.98 | >2.3 | >1.3 | – | –
COc1cccc2c1C(=O)c1c(O)c3c(c(O)c1C2=O)C[C@@](O)(C(=O)CO)C[C@@H]3O[C@H]1C[C@H](N)[C@H](O)[C@H](C)O1 [Doxorubicin, doxorubicin, reference compound] | – | – | 13.2 ± 0.58 | – | 1.89 ± 0.19 | – | 0.29 ± 0.04 | – | – | – | –
